Entries after “also recorded” stand apart in the source; their conditions may differ.
Key:
NOD2 [1] = test: MDP-stimulated cytokine release in primary human monocytes; type: cell-based; settings: MDP 0.1 μg/mL
Experimental: (§1) […] The concentration of IL-1β, IL-6 and TNFα in medium samples collected after 24-hour treatment was determined using the MS6000 human pro-inflammatory-4 II tissue culture kit (Meso Scale Discovery). The IL-8 concentration was determined by HTRF.

TLR2 [2] = test: Pam2CSK4-stimulated IL-8 release in primary human monocytes; type: cell-based; settings: Pam2CSK4 100 pg/mL; GSK717 0.5–16 μM, RIP2 inhibitor 0.05–1.6 μM
NOD2 and TLR2 = test: IL-8 release in primary human monocytes co-stimulated with MDP and Pam2CSK4 (NOD2-TLR2 synergy); type: cell-based; settings: MDP 0.1 μg/mL + Pam2CSK4 100 pg/mL; listed as GSK717
Experimental: as §1

NOD2 [3] = test: MDP-stimulated IL-8 release in 293/hNOD2 cells (HTRF); type: cell-based, human; settings: Homo sapiens
Experimental: (§2) After 24 hours the amount of IL-8 secreted into the medium was determined by homogeneous time resolved fluorescence (HTRF) assay by the direct addition of a 1:1 mix of europium cryptate and XL665-conjugated anti-IL-8 antibodies according to the manufacturer's instructions (Cisbio).

NOD1 [4] = test: iE-DAP-stimulated IL-8 release in 293/hNOD1 cells (HTRF); type: cell-based, human; settings: Homo sapiens; IL-8 end-point; 60 ng/mL iE-DAP; read-out: IC50 293/hNOD1 iE-DAP
Experimental: as §2

NOD1 [5] = test: Tri-DAP-stimulated IL-8 release in HCT116 cells (endogenous NOD1); type: cell-based, human
Experimental: (§3) Compound activity on endogenous NOD1 and NOD2 receptors was determined by inhibition of either Tri-DAP or MDP-stimulated IL-8 release, respectively, using HCT116 human colon carcinoma cells. […] The cells were maintained in DMEM high glucose medium supplemented with 25 mM HEPES and 10% FBS. For assay, cells were seeded into 96 well plates (90,000 cells/well) in DMEM containing 1% FBS and pre-incubated with compounds for 1 hour before addition of either 1 μg/mL MDP or 25 μg/mL Tri-DAP. The level of IL-8 released into medium after 24-hour incubation was determined by HTRF assay as described above and fluorescence measured on an Envision model 2102 multilabel plate reader (Perkin Elmer).

NOD2 [6] = test: MDP-stimulated IL-8 release in HCT116 cells (endogenous NOD2); type: cell-based, human
Experimental: as §3

TNFR1 = test: TNFα-stimulated (TNFR1-induced) IL-8 release in 293/hNOD2 cells; type: cell-based, human; settings: Homo sapiens; IL-8 end-point; 20 ng/mL rhTNFα; read-out: IC50 293/hNOD2 TNFα
Experimental: as §2

TLR2 [7] = test: Pam2CSK4-stimulated IL-8 release in 293/hTLR2 cells; type: cell-based, human; settings: Homo sapiens; IL-8 end-point; 3–10 ng/mL Pam2CSK4; read-out: IC50 293/hTLR2 Pam2CSK4
Experimental: as §2

[8] = molecular target: T1, full length human FLAG-6His tagged RIP2 (Homo sapiens, UniProt O43353); test: RIP2 kinase autophosphorylation assay (ADP-Glo); type: biochemical; settings: autophosphorylation of RIPK2; 10 μM ATP
T1 construct: autophosphorylation of full length human FLAG-6His tagged RIP2; FLAG; 6His; made in house
T1 sequence (O43353 whole entry): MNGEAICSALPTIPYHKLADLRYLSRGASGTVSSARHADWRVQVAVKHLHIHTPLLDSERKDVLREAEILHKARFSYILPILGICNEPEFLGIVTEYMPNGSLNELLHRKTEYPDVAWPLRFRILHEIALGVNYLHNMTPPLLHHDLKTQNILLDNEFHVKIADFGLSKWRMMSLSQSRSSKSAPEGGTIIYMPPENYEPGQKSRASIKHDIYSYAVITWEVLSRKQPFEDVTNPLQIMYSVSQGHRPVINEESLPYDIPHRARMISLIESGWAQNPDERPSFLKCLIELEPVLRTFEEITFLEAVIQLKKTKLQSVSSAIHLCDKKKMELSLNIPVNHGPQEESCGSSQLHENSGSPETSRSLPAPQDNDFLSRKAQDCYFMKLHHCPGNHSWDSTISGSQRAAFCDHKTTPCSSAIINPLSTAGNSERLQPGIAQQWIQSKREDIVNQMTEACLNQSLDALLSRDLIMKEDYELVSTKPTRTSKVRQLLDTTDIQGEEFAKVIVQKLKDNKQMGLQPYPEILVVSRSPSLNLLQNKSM
Experimental: Direct effects of compounds on RIP2 kinase activity was determined by autophosphorylation of full length human FLAG-6His tagged RIP2 expressed and purified from baculovirus. Enzyme was pre-incubated with compounds in assay buffer (50 mM HEPES pH 7.5, 25 mM MgCl2, 0.05%[w/v] CHAPS, 1 mM DTT and 0.05 mg/mL BSA) in 384-well plates, and then incubated with 10μM ATP for 2 hours at room temperature. The amount of ADP generated was measured using the ADP-Glo universal ADP detection assay for kinases (Promega) and luminescence quantified on a ViewLux imager.

NOD2 [9] = test: Western blot of MAPK phosphorylation and IκBα in MDP-stimulated 293/hNOD2 cells; type: cell-based, human; settings: GSK669 at 1 and 10 μM
Experimental: Confluent cultures of 293/-hNOD1 and -hNOD2 cells in 24-well plates were serum-starved over-night. The next day, cells were pre-incubated for 1 hour with compound and then stimulated for 1 hour with either 50 μg/mL Tri-DAP or 25 μg/mL MDP, respectively. Whole cell lysates were prepared in 1X cell lysis buffer (Cell Signaling Technology) containing additional inhibitors of aspartic, cysteine and serine proteases and aminopeptidases (protease inhibitor cocktail set III, EMD Biosciences) and inhibitors of multiple phosphatases (phosphatase inhibitor cocktail sets II and III, Sigma-Aldrich). The levels of phosphorylated and total p38, JNK, ERK1/2 and total IκBα were determined by immunoblotting of ∼20 μg protein per sample using the following primary antibodies: phospho-p38 MAPK (12F8, #4631), p38 MAPK (#9212), phospho-JNK (#9251), JNK (#9252) and IκBα (#9242) all purchased from Cell Signaling Technology, and phospho-ERK1/2 (sc-7383) and ERK1/2 (sc-94) antibodies from Santa Cruz Biotechnology.

IC50 (NOD2 [3]; IL-8 end-point, 30 ng/mL MDP, read-out: IC50 293/hNOD2 MDP) [µM] | IC50 (NOD2 [3]; MDP-stimulated IL-8 production assay in 293/hNOD2 cells, Figures 4 and 5, read-out: NOD2 IC50) [µM] | IC50 (NOD1 [4]) [µM] | IC50 (NOD1 [5]; Homo sapiens, HCT-116, IL-8 end-point, 25 μg/mL Tri-DAP) [µM] | IC50 (NOD2 [6]; Homo sapiens, HCT-116, IL-8 end-point, 1 μg/mL MDP) [nM] | IC50 (TNFR1) [µM] | IC50 (TLR2 [7]) [µM] | IC50 [8] [µM] | Structure (SMILES) | effect on MDP-stimulated IL-8 release in monocytes (NOD2 [1]; GSK717 0.5–16 μM, RIP2 inhibitor 0.05–1.6 μM) | effect on MDP-stimulated cytokine secretion, single concentration (NOD2 [1]; primary human monocytes, compound 5 μM, IL-1β, IL-6, IL-8, TNFα, 24 hours) | effect on Pam2CSK4-stimulated IL-8 release in monocytes (TLR2 [2]) | effect on synergistic IL-8 response of co-stimulated monocytes (NOD2 and TLR2) | effect on IL-8 secretion induced by Tri-DAP in HCT116 cells (NOD1 [5]; Tri-DAP 25 μg/mL, 1 hour pre-treatment) | effect on IL-8 secretion induced by MDP in HCT116 cells (NOD2 [6]; MDP 1 μg/mL, 1 hour pre-treatment) | effect on MDP-induced p-p38, p-JNK and total IκBα (NOD2 [9])
– | – | – | – | – | – | – | – | CN(CCc1nc2ccccc2n1CC(=O)Nc1ccc2c(c1)CCC2)C(=O)c1ccccc1 [Compound 29, N-(2-(1-(2-((2,3-dihydro-1H-inden-5-yl)amino)-2-oxoethyl)-1H-benzo[d]imidazol-2-yl)ethyl)-N-methylbenzamide] | prevented | abrogated the stimulatory effect of MDP | but not Pam2CSK4-stimulated IL-8 release | blocks synergy between NOD2 and TLR2; also recorded: abolished the clear synergistic IL-8 response | – | – | –
5 | 4 ± 3.9 | > 50 | > 50 | 1100 ± 700 | > 100 | > 100 | > 100 | CC(C)c1ccc(NC(=O)Cn2c(CCNC(=O)c3ccccc3)nc3ccccc32)cc1 [Compound 2, N-(2-(1-(2-((4-isopropylphenyl)amino)-2-oxoethyl)-1H-benzo[d]imidazol-2-yl)ethyl)benzamide] | – | – | – | – | had no effect | dose-dependently inhibited | more modest inhibitory effects
